Reference: patent US20080280952A1 (priority 2004, published 2008)

Biological target: T1, human cannabinoid CB2 receptor (Homo sapiens, UniProt P34972)
T1 construct: expressed in transfected cells; host or cells: Saccharomyces cerevisiae strain MMY23 (cassette integrated at the ura3 locus, GPD promoter)
Test: Cannabinoid CB2 receptor agonist activity, yeast reporter assay
Format: cell-based
Conditions: for Emax: read-out: efficacy (Emax) at the cloned human cannabinoid CB2 receptor
Method: The cannabinoid CB2 receptor agonist activity of the compounds of formula (I) was determined in accordance with the following experimental method.
Yeast (Saccharomyces cerevisiae) cells expressing the human cannabinoid CB2 receptor were generated by integration of an expression cassette into the ura3 chromosomal locus of yeast strain MMY23. This cassette consisted of DNA sequence encoding the human CB2 receptor flanked by the yeast GPD promoter to the 5′ end of CB2 and a yeast transcriptional terminator sequence to the 3′ end of CB2. MMY23 expresses a yeast/mammalian chimeric G-protein alpha subunit in which the C-terminal 5 amino acids of Gpa1 are replaced with the C-terminal 5 amino acids of human Gαi3 (as described in Brown et al. (2000), Yeast 16:11-22).
Agonists were prepared as 10 mM stocks in DMSO. […] Agonist solutions in DMSO (1% final assay volume) were transferred into black, clear bottom, microtitre plates from NUNC (96- or 384-well). Cells were suspended at a density of 0.2 OD600/ml in SC media lacking histidine, uracil, tryptophan, adenine and leucine and supplemented with 10 mM 3-aminotriazole, 0.1M sodium phosphate pH 7.0, and […] fluorescein di-β-D-glucopyranoside (FDGlu). […] Fluorescence was plotted against compound concentration and iteratively curve fitted using a four parameter fit to generate a concentration effect value. Efficacy (Emax) was calculated from the equation
Equieffective molar ratio (EMR) values were calculated from the equation

T1 sequence (P34972 whole entry): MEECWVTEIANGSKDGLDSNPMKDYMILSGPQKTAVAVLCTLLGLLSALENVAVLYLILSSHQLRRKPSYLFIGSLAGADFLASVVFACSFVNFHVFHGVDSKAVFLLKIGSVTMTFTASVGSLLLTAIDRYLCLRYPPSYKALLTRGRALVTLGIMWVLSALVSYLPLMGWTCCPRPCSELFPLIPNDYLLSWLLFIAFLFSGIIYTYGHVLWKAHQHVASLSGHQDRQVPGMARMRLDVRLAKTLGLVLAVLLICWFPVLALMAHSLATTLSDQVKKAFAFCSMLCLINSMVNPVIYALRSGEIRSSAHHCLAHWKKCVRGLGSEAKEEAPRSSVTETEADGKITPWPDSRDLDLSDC

Compound	EC50	Emax
COc1cccc(Nc2cc(C3CC3)c(C(=O)NCC3CCCC3)cn2)c1 [Example 118, N-Cyclopentylmethyl-4-cyclopropyl-6-(3-methoxy-phenylamino)-nicotinamide]	300 to 1000 nM	> 50%
O=C(NCC1CCCC1)c1cnc(Nc2ccc(C(F)(F)F)c(Cl)c2)cc1C1CC1 [Example 120, 6-(3-Chloro-4-trifluoromethyl-phenylamino)-N-cyclopentylmethyl-4-cyclopropyl-nicotinamide]	300 to 1000 nM	> 50%
Cc1cccc(Nc2cc(C3CCCC3)c(C(=O)NCC3CCOCC3)cn2)c1 [Example 17, Methanesulphonic acid,compound with 4-cyclopentyl-N-(tetrahydro-pyran-4-ylmethyl)-6-m-tolylamino-nicotinamide]	300 to 1000 nM	> 50%
O=C(NCC1CCOCC1)c1ccc(Nc2cccc(Cl)c2)nc1C1CC1 [Example 124, 6-(3-Chloro-phenylamino)-2-cyclopropyl-N-(tetrahydro-pyran-4-ylmethyl)-nicotinamide]	300 to 1000 nM	> 50%
O=C(NCC1CCOCC1)c1cnc(Nc2ccc(Br)c(F)c2)cc1C1CC1 [Example 97, 6-(4-Bromo-3-fluoro-phenylamino)-4-cyclopropyl-N-(tetrahydro-pyran-4-ylmethyl)-nicotinamide]	300 to 1000 nM	> 50%
O=C(NCC1CCOCC1)c1cnc(Nc2ccc(OC(F)(F)F)cc2Br)cc1C1CC1 [Example 96, 6-(2-Bromo-4-trifluoromethoxy-phenylamino)-4-cyclopropyl-N-(tetrahydro-pyran-4-ylmethyl)-nicotinamide]	300 to 1000 nM	> 50%
O=C(NCC1CCOCC1)c1cnc(Nc2ccc(Cl)cc2F)cc1C1CC1 [Example 98, 6-(4-Chloro-2-fluoro-phenylamino)-4-cyclopropyl-N-(tetrahydro-pyran-4-ylmethyl)-nicotinamide]	300 to 1000 nM	> 50%
Cc1c(Nc2cc(C3CC3)c(C(=O)NCC3CCOCC3)cn2)cccc1C(F)(F)F [Example 107, 4-Cyclopropyl-6-(2-methyl-3-trifluoromethyl-phenylamino)-N-(tetrahydro-pyran-4-ylmethyl)-nicotinamide]	300 to 1000 nM	> 50%
O=C(NCC1CCOCC1)c1cnc(Nc2ccc(Br)c(Cl)c2)cc1C1CC1 [Example 91, 6-(4-Bromo-3-chloro-phenylamino)-4-cyclopropyl-N-(tetrahydro-pyran-4-ylmethyl)-nicotinamide]	300 to 1000 nM	> 50%
O=C(NCC1CCCC1)c1cnc(Nc2cccc(Cl)c2Cl)cc1C1CC1 [Example 119, N-Cyclopentylmethyl-4-cyclopropyl-6-(2,3-dichloro-phenylamino)-nicotinamide]	300 to 1000 nM	> 50%
O=C(NCC1CCCC1)c1cnc(Nc2cccc(F)c2F)cc1C1CC1 [Example 122, N-Cyclopentylmethyl-4-cyclopropyl-6-(2,3-difluoro-phenylamino)-nicotinamide]	300 to 1000 nM	> 50%
O=C(NCC1CCOCC1)c1cnc(Nc2cc(C(F)(F)F)ccc2F)cc1C1CC1 [Example 102, 4-Cyclopropyl-6-(2-fluoro-5-trifluoromethyl-phenylamino)-N-(tetrahydro-pyran-4-ylmethyl)-nicotinamide]	300 to 1000 nM	> 50%
O=C(NCC1CCOCC1)c1ccc(Nc2cccc(C(F)(F)F)c2)nc1C1CC1 [Example 125, 2-Cyclopropyl-N-(tetrahydro-pyran-4-ylmethyl)-6-(3-trifluoromethyl-phenylamino)-nicotinamide]	300 to 1000 nM	> 50%
Cc1cccc(Nc2cc(C3CC3)c(C(=O)NCC3CCCC3)cn2)c1 [Example 117, N-Cyclopentylmethyl-4-cyclopropyl-6-(3-methyl-phenylamino)-nicotinamide]	300 to 1000 nM	> 50%
O=C(NCC1CCC1)c1cnc(Nc2ccc(F)c(C(F)(F)F)c2)cc1C1CC1 [Example 123, N-Cyclobutylmethyl-4-cyclopropyl-6-(4-fluoro-3-trifluoromethyl-phenylamino)-nicotinamide]	300 to 1000 nM	> 50%
COc1cccc(Nc2cc(C3CCCC3)c(C(=O)NCC3CCOCC3)cn2)c1 [Example 26, 4-Cyclopentyl-6-(3-methoxy-phenylamino)-N-(tetrahydro-pyran-4-ylmethyl)-nicotinamide]	300 to 1000 nM	> 50%
Cc1cc(Cl)ccc1Nc1cc(C2CC2)c(C(=O)NCC2CCOCC2)cn1 [Example 95, 6-(4-Chloro-2-methyl-phenylamino)-4-cyclopropyl-N-(tetrahydro-pyran-4-ylmethyl)-nicotinamide]	300 to 1000 nM	> 50%
Cc1ccc(C(F)(F)F)cc1Nc1cc(C2CC2)c(C(=O)NCC2CCOCC2)cn1 [Example 114, 4-Cyclopropyl-6-(2-methyl-5-trifluoromethyl-phenylamino)-N-(tetrahydro-pyran-4-ylmethyl)-nicotinamide]	300 to 1000 nM	> 50%
N#Cc1ccc(Nc2cc(C3CC3)c(C(=O)NCC3CCOCC3)cn2)c(F)c1 [Example 121, 6-(4-Cyano-2-fluoro-phenylamino)-4-cyclopropyl-N-(tetrahydro-pyran-4-ylmethyl)-nicotinamide]	300 to 1000 nM	> 50%
Cc1cc(C#N)ccc1Nc1cc(C2CC2)c(C(=O)NCC2CCOCC2)cn1 [Example 106, 6-(4-Cyano-2-methyl-phenylamino)-4-cyclopropyl-N-(tetrahydro-pyran-4-ylmethyl)-nicotinamide]	300 to 1000 nM	> 50%
